# According to patent publication US20250230193A1, “CYCLIC COMPOUND HAVING SELECTIVE KRAS INHIBITORY EFFECT ON HRAS AND NRAS” (CHUGAI SEIYAKU KABUSHIKI KAISHA, priority 2022, published 2025):
# Key:
# [1] = biological target: GDP-bound NRAS wild-type protein (Homo sapiens, UniProt P01111); assay: Binding to NRAS by surface plasmon resonance (SPR), Single Cycle Kinetics; settings: SPR; for NRAS/KRAS (ratio of KD value for NRAS to KD value for KRAS) / NRAS/KRAS (ratio of KD value with respect to NRAS to KD value with respect to KRAS): GDP-bound NRAS wild-type vs GDP-bound KRAS wild-type
# [2] = biological target: GDP-bound HRAS wild-type protein (Homo sapiens, UniProt P01112); assay: Binding to HRAS by surface plasmon resonance (SPR), Single Cycle Kinetics; settings: SPR; for HRAS/KRAS (ratio of KD value for HRAS to KD value for KRAS) / HRAS/KRAS (ratio of KD value with respect to HRAS to KD value with respect to KRAS): GDP-bound HRAS wild-type vs GDP-bound KRAS wild-type
# Sequence of GDP-bound HRAS wild-type protein (P01112 whole entry): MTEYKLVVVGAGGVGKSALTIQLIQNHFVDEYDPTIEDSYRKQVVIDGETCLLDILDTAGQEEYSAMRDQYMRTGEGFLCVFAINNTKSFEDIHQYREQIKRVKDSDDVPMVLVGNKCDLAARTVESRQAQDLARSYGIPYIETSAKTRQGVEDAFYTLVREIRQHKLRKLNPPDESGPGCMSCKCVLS
# Sequence of GDP-bound NRAS wild-type protein (P01111 whole entry): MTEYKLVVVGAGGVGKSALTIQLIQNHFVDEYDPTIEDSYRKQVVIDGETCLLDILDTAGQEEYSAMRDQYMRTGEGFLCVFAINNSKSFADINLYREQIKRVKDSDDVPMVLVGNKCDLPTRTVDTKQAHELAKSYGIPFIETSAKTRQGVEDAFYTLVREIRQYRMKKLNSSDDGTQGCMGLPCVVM
structure (smiles),measurement,setting,value
CCCOC[C@H]1C(=O)N[C@@H]([C@@H](C)CC)C(=O)N(C)CC(=O)N(C)[C@H]2C/C=C\CCN(C2=O)[C@@H](Cc2ccc(C(F)(F)F)cc2)C(=O)N(C)CC(=O)N[C@@H](CCc2ccc(C(F)(F)F)c(OC)c2)C(=O)N2C[C@@H](C)C[C@H]2C(=O)NC2(CC(C)(C)C2)C(=O)N(C)[C@@H](C2CCCC2)C(=O)N(C)[C@H](C(=O)N(C)CC)CC(=O)N1C [PP1995],NRAS/KRAS (ratio of KD value for NRAS to KD value for KRAS),[1],A (a compound having 10 or more and less than 20 is denoted as A)
same,HRAS/KRAS (ratio of KD value for HRAS to KD value for KRAS),[2],B (a compound having 3 or more and less than 10 is denoted as B)
CC[C@H](C)[C@@H]1NC(=O)[C@H](CC)N(C)C(=O)C[C@@H](C(=O)N(C)CC)N(C)C(=O)[C@H](C2CCCC2)N(C)C(=O)C2(CC(C)(C)C2)NC(=O)[C@@H]2C[C@H](C)CN2C(=O)[C@H](CCc2ccc(C(F)(F)F)c(Cl)c2)NC(=O)CN(C)C(=O)[C@H](Cc2ccc(C)cc2)N2CC/C=C\C[C@@H](C2=O)N(C)C(=O)CN(C)C1=O [PP1874],NRAS/KRAS (ratio of KD value for NRAS to KD value for KRAS),[1],A (a compound having 10 or more and less than 20 is denoted as A)
same,HRAS/KRAS (ratio of KD value for HRAS to KD value for KRAS),[2],A (a compound having 10 or more and less than 20 is denoted as A)
CCO[C@@H]1C[C@H]2C(=O)NC3(CCC3)C(=O)N(C)[C@@H](C3CCCC3)C(=O)N(C)[C@H](C(=O)N(C)C)CC(=O)N(C)[C@@H](CCOC)C(=O)N[C@@H]([C@@H](C)CC)C(=O)N(C)CC(=O)N(C)[C@H]3CCCCN(C3=O)[C@@H](Cc3ccc(C(F)(F)F)cc3)C(=O)N(C)CC(=O)N[C@@H](CCc3cc(F)c(C(F)(F)F)c(F)c3)C(=O)N2C1 [PP0705],NRAS/KRAS (ratio of KD value with respect to GDP-bound NRAS wild-type protein to KD value with respect to KRAS),[1],C (A compound having a KD ratio of 0.1 or more and less than 3 is denoted as C)
same,HRAS/KRAS (ratio of KD value with respect to GDP-bound HRAS wild-type protein to KD value with respect to KRAS),[2],C (A compound having a KD ratio of 0.1 or more and less than 3 is denoted as C)
CC[C@H](C)[C@@H]1NC(=O)[C@@H]2CCCCCN2C(=O)C[C@@H](C(=O)N2CCOCC2)N(C)C(=O)[C@H](C2CCCC2)N(C)C(=O)C2(CCCC2)NC(=O)[C@@H]2CCCN2C(=O)[C@H](CCc2cc(F)c(C(F)(F)F)c(F)c2)NC(=O)CN(C)C(=O)[C@H](Cc2ccc(C(F)(F)F)cc2)N2CCCCC[C@@H](C2=O)N(C)C(=O)CN(C)C1=O [PP0521],NRAS/KRAS (ratio of KD value with respect to GDP-bound NRAS wild-type protein to KD value with respect to KRAS),[1],B (a compound having 3 or more and less than 10 is denoted as B)
same,HRAS/KRAS (ratio of KD value with respect to GDP-bound HRAS wild-type protein to KD value with respect to KRAS),[2],B (a compound having 3 or more and less than 10 is denoted as B)
CCO[C@@H]1C[C@H]2C(=O)NC3(CCC3)C(=O)N(C)[C@@H](C3CCCC3)C(=O)N(C)[C@H](C(=O)N3CCOCC3)CC(=O)N(C)[C@@H](CC3CC3)C(=O)N[C@@H]([C@@H](C)CC)C(=O)N(C)CC(=O)N(C)[C@H]3CCCCN(C3=O)[C@@H](Cc3ccc(C(F)(F)F)cc3)C(=O)N(C)CC(=O)N[C@@H](CCc3cc(F)c(C(F)(F)F)c(F)c3)C(=O)N2C1 [PP0712],NRAS/KRAS (ratio of KD value with respect to GDP-bound NRAS wild-type protein to KD value with respect to KRAS),[1],C (A compound having a KD ratio of 0.1 or more and less than 3 is denoted as C)
same,HRAS/KRAS (ratio of KD value with respect to GDP-bound HRAS wild-type protein to KD value with respect to KRAS),[2],C (A compound having a KD ratio of 0.1 or more and less than 3 is denoted as C)
CCO[C@@H]1C[C@H]2C(=O)NC3(CCC3)C(=O)N(C)[C@@H](C3CCCC3)C(=O)N(C)[C@H](C(=O)N(C)C)CC(=O)N(C)[C@@H](CC(C)C)C(=O)N[C@@H]([C@@H](C)CC)C(=O)N(C)CC(=O)N(C)[C@H]3CC(C)=CCN(C3=O)[C@@H](Cc3ccc(C(F)(F)F)cc3)C(=O)N(C)CC(=O)N[C@@H](CCc3cc(F)c(C(F)(F)F)c(F)c3)C(=O)N2C1 [PP1032],NRAS/KRAS (ratio of KD value with respect to NRAS to KD value with respect to KRAS),[1],C (A compound having a KD ratio of 0.1 or more and less than 3 is denoted as C)
same,HRAS/KRAS (ratio of KD value with respect to HRAS to KD value with respect to KRAS),[2],C (A compound having a KD ratio of 0.1 or more and less than 3 is denoted as C)
CC[C@H](C)[C@@H]1NC(=O)[C@H](CC)N(C)C(=O)C[C@@H](C(=O)N2CCOCC2)N(C)C(=O)[C@H](C2CCCC2)N(C)C(=O)C2(CCCC2)NC(=O)[C@@H]2CCCN2C(=O)[C@H](CCc2ccc(C(F)(F)F)c(Cl)c2)NC(=O)CN(C)C(=O)[C@H](Cc2ccc(F)cc2)N2CCCCC[C@@H](C2=O)N(C)C(=O)CN(C)C1=O [PP0959],NRAS/KRAS (ratio of KD value with respect to NRAS to KD value with respect to KRAS),[1],B (a compound having 3 or more and less than 10 is denoted as B)
same,HRAS/KRAS (ratio of KD value with respect to HRAS to KD value with respect to KRAS),[2],B (a compound having 3 or more and less than 10 is denoted as B)
C#CC[C@H]1C(=O)N[C@@H]([C@@H](C)CC)C(=O)N(C)CC(=O)N(C)[C@H]2C/C=C\CCN(C2=O)[C@@H](Cc2ccc(C)cc2)C(=O)N(C)CC(=O)N[C@@H](CCc2cc(F)c(C(F)(F)F)c(F)c2)C(=O)N2CC3(CC3)C[C@H]2C(=O)NC2(CC(C)(C)C2)C(=O)N(C)[C@@H](C2CCCC2)C(=O)N(C)[C@H](C(=O)N(C)C)CC(=O)N1C [PP2978],NRAS/KRAS (ratio of KD value with respect to GDP-bound NRAS wild-type protein to KD value with respect to KRAS),[1]; GDP-bound wild-type proteins,A (a compound having 10 or more and less than 20 is denoted as A)
same,HRAS/KRAS (ratio of KD value with respect to GDP-bound HRAS wild-type protein to KD value with respect to KRAS),[2]; GDP-bound wild-type proteins,A (a compound having 10 or more and less than 20 is denoted as A)
